Marks after values point to notes of the source that are not given here.
Assays:
Type in all cases: physicochemical
[1] = Approximate solubility by manual dilution; conditions: r.t.
Protocol: The approximate solubility of the PP415-P1 starting material was measured in twelve solvents and four solvent mixtures at r.t. by manual dilution combined with visual observation (Table 10). Due to the experimental error inherent in this method, the solubility values are intended to be regarded as rough estimates and are to be used solely for the design of crystallization experiments. All solvent mixtures are listed as ratios by volume (v/v).
Approximate Solubility Determination: Approximate solubilities were determined by a stepwise dilution of a suspension of about 10 mg of substance in 0.05 mL of solvent. […] Due to the experimental error inherent in this method, the solubility values are intended to be regarded as rough estimates and are to be used solely for the design of crystallization experiments.

[2] = Chemical stability in solvents and aqueous surfactant media (HPLC); conditions: diluent 0.1% formic acid in MeCN, within ~24 hours; start 99.9%
Protocol: The chemical stability of the amorphous form was investigated in different solvents over the course of seven days.
Solutions/suspensions with a concentration of 1 mg/mL were prepared in four organic solvents (acetone, MeOH, MeCN, EtOAc) and three aqueous surfactant media (1% aq. SDS, 1% aq. Tween 80, 1% aq. CTAB).
Four separate solutions/suspensions were prepared for each solvent, equilibrated for 6 h, 24 h, 2 d, and 7 d and subsequently analyzed by HPLC.
Due to this effect, the samples measured towards the end of the sequence (set up in the following order: 7 d, 2 d, 24 h, 6 h), might be affected and the obtained area-% might be underestimated.
Four samples of 1.0 mg of the PP415-P1 material in 1.0 mL of the respective solvent were prepared. The resulting suspensions/solutions were equilibrated in a temperature-controlled Eppendorf Thermomixer Comfort shaker for 7 d, 2 d, 24 h, and 6 h at 25° C. at a shaking rate of 500 rpm. If necessary, the solid phase was separated by filter centrifugation (0.5-μm PVDF membrane). The filtrates were diluted in the diluent (0.1% formic acid in MeCN) to concentrations≦0.2 mg/mL (unknown and likely lower for suspensions) and examined using the HPLC method given in Table 29. As reference, the PP415-P1 material was diluted in the diluent to a concentration of 0.25 mg/mL and added to the beginning and end of the HPLC sequence.

[3] = Storage stability of the amorphous form (PXRD)
Protocol: To learn more about its fundamental properties and physical stability, the amorphous form of 63415 was stressed by storage at elevated temperatures and relative humidities.
Samples of the amorphous form (the PP415-P1 starting material) were stored open at 25° C./˜62% r.h. (over saturated aqueous solution of NH4NO3) and 40° C./˜75% r.h. (over saturated aqueous solution of NaCl) and closed at 60° C. and 80° C. (Table 12). At time points 0 w, 1 w, 2 w, and 4 w the samples were examined by PXRD and compared to the starting material, PP415-P1.

[4] = Dynamic vapor sorption (hygroscopicity)
Protocol: Projekt Messtechnik Sorptions Prüfsystem SPS 11-100n or Surface Measurement Systems DVS-1. The sample was placed on an aluminum or platinum holder on top of a microbalance and allowed to equilibrate for 2 h at 50% r.h. before starting the pre-defined humidity program: • (1) 50→0% r.h. (5%/h); 5 h at 0% r.h. • (2) 0→95% r.h. (5%/h); 5 h at 95% r.h. • (3) 95→50% r.h. (5%/h); 2 h at 50% r.h.

[5] = Polymorph screen: crystallization and drying experiments (FT-Raman, PXRD, TG-FTIR, DSC)
Protocol: A preformulation and polymorphism study was performed for compound 63415. […] A total of 30 crystallization experiments, including phase equilibrations, drying experiments and other techniques, were carried out. All obtained solids were characterized by FT-Raman spectroscopy. All new forms were characterized by PXRD and TG-FTIR, and optionally by DSC and DVS.
All obtained materials were characterized by FT-Raman spectroscopy; selected samples were also characterized by PXRD.
Suspension equilibration experiments were carried out in one solvent and eleven solvent mixtures (Table 13). Suspensions of ˜100 mg of PP415-P1 in 0.2-2.0 mL of the selected solvents were prepared and shaken for 4-15 days at 22-24° C. The solids were recovered and characterized by FT-Raman spectroscopy; most were characterized also by PXRD.
Hot solutions of PP415-P1 were prepared in one solvent and four solvent mixtures (Table 14). […] In two cases (-P22, -P23) no solid precipitated, even after storage at 4-5° C. for two days. Here, the solvent was evaporated under N2 flow at r.t. The solids were recovered and characterized by FT-Raman spectroscopy and for those with spectra different from the amorphous starting material, FT-Raman class 1, also by PXRD.
Clear solutions of PP415-P1 were prepared in three solvent mixtures (Table 15). The solvents were then slowly evaporated at r.t. under ambient conditions. However, in two of the three experiments (-P15 and -P17) white solid precipitated before evaporation began. The obtained solids were examined by FT-Raman spectroscopy and PXRD.
At least one sample of each class was dried under vacuum with the aim to desolvate the solvates and to obtain non-solvated crystalline forms of 63415 (Table 16). The dried materials were characterized further by FT-Raman, PXRD, and TG-FTIR.
Bruker RFS100 with OPUS 6.5 software; Nd:YAG 1064-nm excitation, Ge detector, 3500-100 cm^−1 range; typical measurement conditions: 100-300 mW nominal laser power, 64-128 scans, 2 cm^−1 resolution.
Stoe Stadi P; Mythen1K Detector; Cu—Kα radiation; standard measurement conditions: transmission; 40 kV and 40 mA tube power; curved Ge monochromator; 0.02°2θ step size, 12 s or 60 s step time, 1.5-50.5°2θ or 1.0-55°2θ scanning range; detector mode: step scan; 1°2θ or 6°2θ detector step; standard sample preparation: 10 to 20 mg sample was placed between two acetate foils; sample holder: Stoe transmission sample holder; the sample was rotated during the measurement.
Netzsch Thermo-Microbalance TG 209 with Bruker FT-IR Spectrometer Vector 22; aluminum crucible (with microhole), N2 atmosphere, 10 K/min heating rate, 25-250° C. or 25-350° C. range.
Perkin Elmer DSC 7; gold crucibles (closed or with microhole), sample filled in an N2 environment, 10 K/min heating rate, −50 to 250° C. or 350° C. range, at times quench cooling (at −200 K/min) to −50° C. between scans.

SMILES: CC1(C)CC[C@]2(NC(=O)C(C)(F)F)CC[C@]3(C)[C@H](C(=O)C=C4[C@@]5(C)C=C(C#N)C(=O)C(C)(C)[C@@H]5CC[C@]43C)[C@@H]2C1 [PP415-P1]
- Solubility S ([1]; DCM): S > 200 mg/mL
- Solubility S ([1]; DEE, dissolved completely overnight): S > 1^d mg/mL
- Solubility S ([1]; DMF): S > 210 mg/mL
- Solubility S ([1]; EtOAc): S > 210 mg/mL
- Solubility S ([1]; H2O): S < 1 mg/mL
- Solubility S ([1]; MeCN): S > 230 mg/mL
- Solubility S ([1]; MeCN/H2O (2:3)): S < 1 mg/mL
- Solubility S ([1]; MeOH): S < 210 mg/mL
- Solubility S ([1]; acetone): S > 230 mg/mL
- Solubility S ([1]; heptane): S < 1 mg/mL
- Solubility S ([1]; toluene): S > 200 mg/mL
- Solubility S ([1]; toluene/DEE (1:1), precipitation after ~1d): S > 220 mg/mL
- area-% of reference sample at end of HPLC sequence, 242 nm [2]: 99.5%
- area-% of reference sample at end of HPLC sequence, 254 nm [2]: 99.3%
- PXRD Result after storage ([3]; closed, 60° C., 1 w): amorphous
- PXRD Result after storage ([3]; closed, 60° C., 2 w): amorphous
- PXRD Result after storage ([3]; closed, 60° C., 4 w): amorphous
- PXRD Result after storage ([3]; closed, 80° C., 1 w): amorphous
- PXRD Result after storage ([3]; closed, 80° C., 2 w): amorphous
- PXRD Result after storage ([3]; closed, 80° C., 4 w): amorphous
- PXRD Result after storage ([3]; open, 25° C./~62% r.h., 1 w): amorphous
- PXRD Result after storage ([3]; open, 25° C./~62% r.h., 2 w): amorphous
- PXRD Result after storage ([3]; open, 25° C./~62% r.h., 4 w): amorphous
- PXRD Result after storage ([3]; open, 40° C./~75% r.h., 1 w): amorphous
- PXRD Result after storage ([3]; open, 40° C./~75% r.h., 2 w): amorphous
- PXRD Result after storage ([3]; open, 40° C./~75% r.h., 4 w): amorphous
- DVS: hygroscopicity class [4]: DVS: slightly hygroscopic; Δm = (mass increase <2% but ≧0.2%)
- DVS: total mass gain from 0% r.h. to 95% r.h. ([4]; 0% r.h. to 95% r.h.): mass gain of 2.1 wt.-% from 0%
- DVS: Δm (50%→85% r.h.) ([4]; 50%→85% r.h.): +0.4% (50%→85% r.h.); total
- Δm (50%→85% r.h.) ([4]; DVS): +0.4%
- post-DVS Raman and/or PXRD: solid form ([4]; after DVS): unchanged
- Hygroscopicity classification (DVS) ([4]; mass gain at 85% r.h.): slightly hygroscopic (mass increase <2% but ≧0.2%)
- TG-FTIR: decomposition at T [5]: decomposition at T > 290 °C
- DSC: Tg, 1st scan ([5]; 1st scan): DSC: 1st scan: Tg = 152.7 °C
- DSC: Tg, 2nd scan ([5]; 2nd scan): Tg = 149.7 °C (ΔCp = 0.45 J/g ° C.)
- TG-FTIR: mass loss (solvent) ([5]; first or main loss, solvent and temperature range per sample as printed): TG-FTIR: loss of ~0.9 wt.-%

From patent US9701709B2 (REATA PHARMACEUTICALS, INC., priority 2012, dated 2017)
